# According to patent publication US20050147754A1, “Zirconium complex useful in a CVD method and a thin film preparation method using the complex” (Saes Getters S.p.A., priority 2002, published 2005):
# Test: TG-DTA in dry air versus argon gas (oxidative degradation)
# Settings: onset of caloric value difference between dry air and argon gas, dDTA/dT, FIG. 3(b)
row,temperature at which oxidation reaction occurred,Compound
1,about 130 °C,"CC(C)C(=O)C=C([O][Zr]([O]C(=CC(=O)C(C)C)C(C)C)([O]C(=CC(=O)C(C)C)C(C)C)[O]C(=CC(=O)C(C)C)C(C)C)C(C)C [Zr(DIBM)4, zirconium tetrakis[diisobutyrylmethanate]]"
2,about 280 °C,"CC(C)(C)C(=O)C=C(O)C(C)(C)C.CC(C)(C)C(=O)C=C(O)C(C)(C)C.CC(C)(C)C(=O)C=C(O)C(C)(C)C.CC(C)(C)C(=O)C=C(O)C(C)(C)C.[Zr] [Zr(DPM)4, zirconium tetrakis[dipivaloylmethanate]]"
